The text below walks through data of US8163793B2, “Proline derivatives” (Hoffman-La Roche Inc., priority 2009, dated 2012).

The structures appear in SMILES notation.

The target in assay [1] is Cat L (UniProt P07711). The assay can be described thus: Cathepsin enzyme inhibition assay (fluorogenic peptide substrate Z-Val-Val-Arg-AMC), Cathepsin L. The class given is biochemical, human and mouse. The following applies: enzyme 1 nM, substrate 20 μM, pH 6.5; read-out: CatL IC50. The procedure, abridged:
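Fluorogenic cleavage of Z-Val-Val-Arg-AMC (20 μM) by 1 nM Cat L was monitored at ex 360/em 465 nm for 20 min, the linear phase. The buffer was 100 mM potassium phosphate pH 6.5 with 5 mM EDTA and DTT. IC50 values were derived by standard methods, in μM.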

The target of assay [2] is Cathepsin S (UniProt P25774). The assay can be described thus: Cathepsin enzyme inhibition assay (fluorogenic peptide substrate Z-Val-Val-Arg-AMC), Cathepsin S. The assay is classed as biochemical, human and mouse. The note with it: enzyme 1 nM, substrate 20 μM, pH 6.5; read-out: CatS IC50. The procedure, abridged:
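Compounds were combined with 1 nM human or mouse enzyme, and substrate then started the reaction. The buffer was potassium phosphate (100 mM, pH 6.5) containing EDTA-Na 5 mM, Triton X-100 0.001% and […] 5 mM.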

As a reminder, the IC50 is the concentration that inhibits the measured activity by half.

Turning to `CC(C)C(=O)N1C[C@H](S(=O)(=O)c2ccccc2Cl)C[C@H]1C(=O)NC1(C#N)CC1` [Example 218, (2S,4R)-4-(2-Chloro-benzenesulfonyl)-1-isobutyryl-pyrrolidine-2-carboxylic acid (1-cyano-cyclopropyl)-amide], the figures for the IC50 in assay [1] and in assay [2] were 14600 nM and 0.4 nM, respectively.

For the compound `N#CC1(NC(=O)[C@@H]2C[C@@H](S(=O)(=O)c3ccccc3Cl)CN2C(=O)CC(F)(F)F)CC1` [Example 219, (2S,4R)-4-(2-Chloro-benzenesulfonyl)-1-(3,3,3-trifluoro-propionyl)-pyrrolidine-2-carboxylic Acid (1-cyano-cyclopropyl)-amide], the figures for the IC50 in assay [1] and in assay [2] were 12600 nM and 0.3 nM, respectively.

Regarding `CC(C)CC(=O)N1C[C@H](S(=O)(=O)c2ccccc2Cl)C[C@H]1C(=O)NC1(C#N)CC1` [Example 220, (2S,4R)-4-(2-Chloro-benzenesulfonyl)-1-(3-methyl-butyryl)-pyrrolidine-2-carboxylic acid (1-cyano-cyclopropyl)-amide], the results for the IC50 in assay [1] and in assay [2] were 17800 nM and 0.4 nM, respectively.

Turning to `CC(C)(C)OC(=O)N1C[C@H](S(=O)(=O)c2ccc(Cl)cc2OCC(F)(F)F)C[C@H]1C(=O)NC1(C#N)CC1` [Example 221, (2S,4R)-4-[4-Chloro-2-(2,2,2-trifluoro-ethoxy)-benzenesulfonyl]-2-(1-cyano-cyclopropylcarbamoyl)-pyrrolidine-1-carboxylic acid tert-butyl ester], the values for the IC50 in assay [1] and in assay [2] were no less than 25000 nM and 130 nM, respectively.

As for `CC1(C(=O)N2C[C@H](S(=O)(=O)c3ccc(Cl)cc3Cl)C[C@H]2C(=O)NC2(C#N)CC2)CC1` [Example 222, (2S,4R)-4-(2,4-Dichloro-benzenesulfonyl)-1-(1-methyl-cyclopropanecarbonyl)-pyrrolidine-2-carboxylic acid (1-cyano-cyclopropyl)-amide], the IC50 in assay [1] was determined as 18600 nM; in assay [2], 1.2 nM.

For the compound `N#CC1(NC(=O)[C@@H]2C[C@@H](S(=O)(=O)c3ccc(Cl)cc3Cl)CN2C(=O)C2(c3ccc(Cl)cc3)CC2)CC1` [Example 223, (2S,4R)-1-[1-(4-Chloro-phenyl)-cyclopropanecarbonyl]-4-(2,4-dichloro-benzenesulfonyl)-pyrrolidine-2-carboxylic acid (1-cyano-cyclopropyl)-amide], the IC50 was determined as 45 nM in assay [1] and 0.1 nM in assay [2].

Consider `N#CC1(NC(=O)[C@@H]2C[C@@H](S(=O)(=O)c3ccc(Cl)cc3Cl)CN2C(=O)C2(c3ccccc3)CC2)CC1` [Example 224, (2S,4R)-4-(2,4-Dichloro-benzenesulfonyl)-1-(1-phenyl-cyclopropanecarbonyl)-pyrrolidine-2-carboxylic acid (1-cyano-cyclopropyl)-amide], for which the IC50 in assay [1] was 1000 nM; in assay [2], 0.2 nM.

Consider `CC(C)(C)C(=O)N1C[C@H](S(=O)(=O)c2ccc(Cl)cc2Cl)C[C@H]1C(=O)NC1(C#N)CC1` [Example 225, (2S,4R)-4-(2,4-Dichloro-benzenesulfonyl)-1-(2,2-dimethyl-propionyl)-pyrrolidine-2-carboxylic Acid (1-cyano-cyclopropyl)-amide], for which the figures for the IC50 in assay [1] and in assay [2] were 18300 nM and 1.2 nM, respectively.

`CC(C)C(=O)N1C[C@H](S(=O)(=O)c2ccc(Cl)cc2Cl)C[C@H]1C(=O)NC1(C#N)CC1` [Example 226, (2S,4R)-4-(2,4-Dichloro-benzenesulfonyl)-1-isobutyryl-pyrrolidine-2-carboxylic acid (1-cyano-cyclopropyl)-amide]: the results for the IC50 in assay [1] and in assay [2] were 13500 nM and 0.6 nM, respectively.

For `N#CC1(NC(=O)[C@@H]2C[C@@H](S(=O)(=O)c3ccc(Cl)cc3Cl)CN2C(=O)CC(F)(F)F)CC1` [Example 227, (2S,4R)-4-(2,4-Dichloro-benzenesulfonyl)-1-(3,3,3-trifluoro-propionyl)-pyrrolidine-2-carboxylic acid (1-cyano-cyclopropyl)-amide], the figures for the IC50 in assay [1] and in assay [2] were 15600 nM and 0.6 nM, respectively.

On to `CC(C)CC(=O)N1C[C@H](S(=O)(=O)c2ccc(Cl)cc2Cl)C[C@H]1C(=O)NC1(C#N)CC1` [Example 228, (2S,4R)-4-(2,4-Dichloro-benzenesulfonyl)-1-(3-methyl-butyryl)-pyrrolidine-2-carboxylic acid (1-cyano-cyclopropyl)-amide], for which the values for the IC50 in assay [1] and in assay [2] were 15400 nM and 0.9 nM, respectively.

For `C[C@H](Oc1ccc(S(=O)(=O)[C@@H]2C[C@@H](C(=O)NC3(C#N)CC3)N(C(=O)OC(C)(C)C)C2)c(Cl)c1)C(F)(F)F` [Example 229, (2S,4R)-4-[2-Chloro-4-((S)-2,2,2-trifluoro-1-methyl-ethoxy)-benzenesulfonyl]-2-(1-cyano-cyclopropylcarbamoyl)-pyrrolidine-1-carboxylic acid tert-butyl ester], the IC50 in assay [1] is 23900 nM; in assay [2], 14.7 nM.

For `C[C@H](Oc1ccc(S(=O)(=O)[C@H]2CN[C@H](C(=O)NC3(C#N)CC3)C2)c(Cl)c1)C(F)(F)F` [Example 230, (2S,4R)-4-[2-Chloro-4-((S)-2,2,2-trifluoro-1-methyl-ethoxy)-benzenesulfonyl]-pyrrolidine-2-carboxylic acid (1-cyano-cyclopropyl)-amide], the values for the IC50 in assay [1] and in assay [2] were 14800 nM and 15.3 nM, respectively.

For `Cc1cc(N2C[C@H](S(=O)(=O)c3ccccc3C(F)(F)F)C[C@H]2C(=O)NC2(C#N)CC2)n(-c2ccn(C(=O)OCC(C)C)c(=O)c2)n1` [Example 231, 4-{5-[(2S,4R)-2-(1-Cyano-cyclopropylcarbamoyl)-4-(2-trifluoromethyl-benzenesulfonyl)-pyrrolidin-1-yl]-3-methyl-pyrazol-1-yl}-2-oxo-2H-pyridine-1-carboxylic acid Isobutyl ester], the IC50 is greater than 25000 nM in assay [1] and 0.5 nM in assay [2].

For the compound `Cc1cc(N2C[C@H](S(=O)(=O)c3ccccc3C(F)(F)F)C[C@H]2C(=O)NC2(C#N)CC2)n(-c2ccc(C(F)(F)F)cc2)n1` [Example 232, (2S,4R)-1-[5-Methyl-2-(4-trifluoromethyl-phenyl)-2H-pyrazol-3-yl]-4-(2-trifluoromethyl-benzenesulfonyl)-pyrrolidine-2-carboxylic acid (1-cyano-cyclopropyl)-amide], the IC50 in assay [1] was found to be 12800 nM; in assay [2], 0.21 nM.

As for `Cc1cc(N2C[C@H](S(=O)(=O)c3ccccc3C(F)(F)F)C[C@H]2C(=O)NC2(C#N)CC2)n(-c2cccc(Cl)c2)n1` [Example 233, (2S,4R)-1-[2-(3-Chloro-phenyl)-5-methyl-2H-pyrazol-3-yl]-4-(2-trifluoromethyl-benzenesulfonyl)-pyrrolidine-2-carboxylic acid (1-cyano-cyclopropyl)-amide], the IC50 is 21100 nM in assay [1] and 0.465 nM in assay [2].

Take `Cc1cc(N2C[C@H](S(=O)(=O)c3ccccc3C(F)(F)F)C[C@H]2C(=O)NC2(C#N)CC2)n(-c2nccs2)n1` [Example 234, (2S,4R)-1-(5-Methyl-2-thiazol-2-yl-2H-pyrazol-3-yl)-4-(2-trifluoromethyl-benzenesulfonyl)-pyrrolidine-2-carboxylic acid (1-cyano-cyclopropyl)-amide]: the IC50 was no less than 25000 nM in assay [1] and 1.57 nM in assay [2].
